Like-named read-outs stand apart in the source and are kept apart here.
Tests used:
Pseudomonas aeruginosa = experiment: USP <51> antimicrobial effectiveness (challenge) test, P. aeruginosa; format: cell-based; details: for Log P. aeruginosa: initial inoculum 2.9 × 10^5 cfu/mL = 5.46; for Log Change (P. aeruginosa), decrease in log 10 of organism from initial spike: initial log 5.46
Source text: (§1) See Antimicrobial Test Laboratories description of USP 51 Test.

[1] = test system: Escherichia coli (ATCC 8739); experiment: USP <51> antimicrobial effectiveness (challenge) test, E. coli; format: cell-based; details: for Log E. coli: initial inoculum 5.0 × 10^5 cfu/mL = 5.70; for Log Change (E. coli), decrease in log 10 of organism from initial spike: initial log 5.70
Source text: as §1

[2] = test system: Candida albicans (ATCC 10231); experiment: USP <51> antimicrobial effectiveness (challenge) test, C. albicans; format: cell-based; details: for Log C albicans: initial inoculum 9.4 × 10^5 cfu/mL = 5.97; for Log Change (C albicans), decrease in log 10 of organism from initial spike: initial log 5.97
Source text: as §1

[3] = test system: Aspergillus brasiliensis (ATCC 16404); experiment: USP <51> antimicrobial effectiveness (challenge) test, A. brasiliensis; format: cell-based; details: for Log A brasiliensis: initial inoculum 2.6 × 10^5 cfu/mL = 5.41; for Log Change (A brasiliensis), decrease in log 10 of organism from initial spike: initial log 5.41
Source text: as §1

[4] = test system: Staphylococcus aureus (ATCC 6538P); details: initial log 5.34
Description: USP 51 challenges (inoculates) a formula with 5 different microorganisms, separately. Three bacteria and two fungal strains are used for each USP 51 test. Test microorganisms are grown in liquid or on solid medium, depending on the microorganism. Microorganisms used for a USP 51 test include: 1) Candida albicans (a yeast which is a form of fungus), 2) Aspergillus brasiliensis (a filamentous mold and also a fungus), 3) Escherichia coli (a bacterium better known as “E. coli”), 4) Pseudomonas aeruginosa (a bacterium that is problematic industrially), and 5) Staphylococcus aureus (a bacterium known as “Staph”).
The test microorganisms are either harvested by centrifugation from broth culture or by washing surface growth from a solid medium into a sterile vessel. The concentrations of test microorganisms are standardized by re-suspending harvested microorganisms in sterile saline to yield ˜1×10̂8 CFU/ml. […] A recovery analysis is performed to verify that microorganisms present in a sample can be adequately recovered and enumerated using the chosen dilution and plating scheme. A sufficient volume of test product (typically 10 ml) is distributed into each of 5 separate containers, and each container is inoculated with a separate test microorganism (mentioned above). The initial concentration of viable microorganisms in the test product is determined by standard dilution and plate count methods. […] The microorganism concentration at each interval is compared to the initial concentration, and then preservative effectiveness is determined based upon USP guidelines.
Here, a USP 51 test was conducted with the following parameters. For preparatory method suitability, validated recovery of organisms using TSB+IAA broth.

## urea sulfate
Pseudomonas aeruginosa; Day 1
  Log P. aeruginosa: <1 Log
  Log Change (P. aeruginosa), decrease in log 10 of organism from initial spike: >*4.46 log 10
Pseudomonas aeruginosa; Day 7
  Log P. aeruginosa: <1 Log
  Log Change (P. aeruginosa), decrease in log 10 of organism from initial spike: >*4.46 log 10
Pseudomonas aeruginosa; Day 14
  Log P. aeruginosa: <1 Log
  Log Change (P. aeruginosa), decrease in log 10 of organism from initial spike: >*4.46 log 10
Pseudomonas aeruginosa; Day 28
  Log P. aeruginosa: <1 Log
  Log Change (P. aeruginosa), decrease in log 10 of organism from initial spike: >*4.46 log 10
Pseudomonas aeruginosa; after a month
  change in the amount of Pseudomonas aeruginosa: no measurable change
[1]; Day 1
  Log E. coli: <1 Log
  Log Change (E. coli), decrease in log 10 of organism from initial spike: >*4.70 log 10
[1]; Day 7
  Log E. coli: <1 Log
  Log Change (E. coli), decrease in log 10 of organism from initial spike: >*4.70 log 10
[1]; Day 14
  Log E. coli: <1 Log
  Log Change (E. coli), decrease in log 10 of organism from initial spike: >*4.70 log 10
[1]; Day 28
  Log E. coli: <1 Log
  Log Change (E. coli), decrease in log 10 of organism from initial spike: >*4.70 log 10
[1]; after a month
  change in the amount of Escherichia coli: no measurable change
[2]; Day 1
  Log C albicans: <1 Log
  Log Change (C albicans), decrease in log 10 of organism from initial spike: >*4.97 log 10
[2]; Day 7
  Log C albicans: <1 Log
  Log Change (C albicans), decrease in log 10 of organism from initial spike: >*4.97 log 10
[2]; Day 14
  Log C albicans: <1 Log
  Log Change (C albicans), decrease in log 10 of organism from initial spike: >*4.97 log 10
[2]; Day 28
  Log C albicans: <1 Log
  Log Change (C albicans), decrease in log 10 of organism from initial spike: >*4.97 log 10
[2]; after a month
  change in the amount of Candida albicans: no measurable change
[3]; Day 1
  Log A brasiliensis: <1 Log
  Log Change (A brasiliensis), decrease in log 10 of organism from initial spike: >*4.97 log 10
[3]; Day 7
  Log A brasiliensis: <1 Log
  Log Change (A brasiliensis), decrease in log 10 of organism from initial spike: >*4.97 log 10
[3]; Day 14
  Log A brasiliensis: <1 Log
  Log Change (A brasiliensis), decrease in log 10 of organism from initial spike: >*4.97 log 10
[3]; Day 28
  Log A brasiliensis: <1 Log
  Log Change (A brasiliensis), decrease in log 10 of organism from initial spike: >*4.97 log 10
[3]; after a month
  change in the amount of Aspergillus brasiliensis: no measurable change
[4]; Day 1
  Log Change (S aureus), decrease in log 10 of organism from initial spike: >*4.34 log 10
[4]; Day 7
  Log Change (S aureus), decrease in log 10 of organism from initial spike: >*4.34 log 10
[4]; Day 14
  Log Change (S aureus), decrease in log 10 of organism from initial spike: >*4.34 log 10
[4]; Day 28
  Log Change (S aureus), decrease in log 10 of organism from initial spike: >*4.34 log 10
